Where a name gives a salt, the structure may show the parent alone.

The target in one test is rhCatC (Homo sapiens (Human), UniProt P53634). Put plainly: In vitro enzyme activity experiment of rhCatC (AMC fluorescence assay). The test is classed as biochemical.
rhCatC, sequence (P53634 25-134): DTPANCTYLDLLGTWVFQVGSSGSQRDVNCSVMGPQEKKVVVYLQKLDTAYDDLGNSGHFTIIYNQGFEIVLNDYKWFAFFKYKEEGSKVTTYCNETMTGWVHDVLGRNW
rhCatC, sequence (P53634 231-394): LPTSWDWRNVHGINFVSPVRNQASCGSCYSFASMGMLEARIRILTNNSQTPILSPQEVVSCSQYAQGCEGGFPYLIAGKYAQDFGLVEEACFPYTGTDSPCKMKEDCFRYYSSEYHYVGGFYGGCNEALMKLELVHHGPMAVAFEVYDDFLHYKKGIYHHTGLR
rhCatC, sequence (P53634 395-463): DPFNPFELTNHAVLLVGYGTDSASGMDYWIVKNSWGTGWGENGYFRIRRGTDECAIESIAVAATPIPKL
Settings: not given
The procedure: The in vitro inhibitory effect of compounds and positive control on rhCatC enzyme activity was evaluated by AMC fluorescence assay. rhCatC can catalyze the reaction of substrate peptide H-Gly-Arg-AMC, and release AMC to generate fluorescence. […] The compound was diluted with DMSO to a 384-well echo plate at a concentration of 100× of the highest concentration at the beginning of the experiment. 0.2 μL of the diluted compound was pipetted to a black-bottomed 384-well reaction plate for later use. The negative control well was DMSO. • 2) Activation of rhCatC: RhCatC and rhCatL were added to the activation buffer to obtain a final concentration of rhCatC of 100 μg/mL and a final concentration of rhCatL of 20 μg/mL, and incubated at room temperature for 1 hour. • 3) Enzyme activity reaction: Activated rhCatC was diluted to 0.4 μg/mL with the reaction buffer. The solution was added to the black-bottom 384-well reaction plate ([…]). 10 μL of the buffer was added for the vehicle control group. The plate containing compounds in its wells was incubated at room temperature for 30 minutes.
The RLU data was read, the inhibition rate was calculated, and the IC50 value was calculated according to the fitting curve of concentration and inhibition rate.
For the molecule `N#Cc1cc2c(cn1)-c1cc(F)c(C[C@@H](C#N)NC(=O)[C@@H]3CNCCCO3)cc1OC2` [Compound 19, (S)—N—((S)-1-Cyano-2-(3-cyano-9-fluoro-5H-chromeno[4,3-c]pyridin-8-yl)ethyl)-1,4-oxazepane-2-carboxamide], the half-maximal inhibitory concentration (IC50) stood at 32 nM. The same measure, in the same setting: for `CS(=O)(=O)c1ccc2c(c1)-c1cc(F)c(CC(C#N)NC(=O)[C@@H]3CNCCCO3)cc1OC2` (stereo partly drawn) [Compound 43, (2S)—N-(1-Cyano-2-(2-fluoro-9-(methylsulfonyl)-6H-benzo[c]chromen-3-yl)ethyl)-1,4-oxazepane-2-carboxamide] the value was 26 nM.

Staying with this test, now noted: rhCatC enzyme, substrate H-Gly-Arg-AMC; read-out: Biological activity IC50.
As for `N#C[C@H](Cc1ccc2c(c1)CN(c1ccccc1)C2=O)NC(=O)C1(N)CCOCC1` [Compound 1, (S)-4-Amino-N-(1-cyano-2-(1-oxo-2-phenylisoindolin-5-yl)ethyl)tetrahydro-2H-pyran-4-carboxamide], the IC50 worked out at 42 nM. For the molecule `N#C[C@H](Cc1ccc2c(c1)CN(c1ccccc1)C2=O)NC(=O)[C@@H]1CNCCCO1` [Compound 2, (S)—N—((S)-1-Cyano-2-(1-oxo-2-phenylisoindolin-5-yl)ethyl)-1,4-oxazepane-2-carboxamide], the IC50 came out at 710 nM. As for `N#CC(Cc1ccc2c(c1)CCCC2)NC(=O)[C@@H]1CNCCCO1` (stereo partly drawn) [Compound 3, (2S)—N-(1-Cyano-2-(5,6,7,8-tetrahydronaphthalen-2-yl)ethyl)-1,4-oxazepane-2-carboxamide trifluoroacetate], the IC50 worked out at 4250 nM. With `N#CC(Cc1ccc2c(c1)CCCC2)NC(=O)C1(N)CCOCC1` (stereo not shown) [Compound 4, 4-Amino-N-(1-cyano-2-(5,6,7,8-tetrahydronaphthalen-2-yl)ethyl)tetrahydro-2H-pyran-4-carboxamide], the IC50 is 54 nM. As to `N#CC(Cc1ccc2c(c1)CCC2)NC(=O)[C@@H]1CNCCCO1` (stereo partly drawn) [Compound 5, (2S)—N-(1-Cyano-2-(2,3-dihydro-1H-inden-5-yl)ethyl)-1,4-oxazepane-2-carboxamide trifluoroacetate], the IC50 worked out at 3590 nM.

Regarding `N#CC(Cc1ccc2c(c1)CCC2)NC(=O)C1(N)CCOCC1` (stereo not shown) [Compound 6, 4-Amino-N-(1-cyano-2-(2,3-dihydro-1H-inden-5-yl)ethyl)tetrahydro-2H-pyran-4-carboxamide], the IC50 is 56 nM.

As for `CN1CCc2cc(C[C@@H](C#N)NC(=O)[C@@H]3CNCCCO3)ccc2C1` [Compound 9, (S)—N—((S)-1-Cyano-2-(2-methyl-1,2,3,4-tetrahydroisoquinolin-6-yl)ethyl)-1,4-oxazepane-2-carboxamide], the half-inhibitory concentration (IC50) was found to be 1740 nM. As to `N#C[C@H](Cc1ccc2c(c1)OCCC2)NC(=O)C1(N)CCOCC1` [Compound 10, (S)-4-Amino-N-(2-(chroman-7-yl)-1-cyanoethyl)tetrahydro-2H-pyran-4-carboxamide], the IC50 was determined as 74 nM. As to `N#CC(Cc1ccc2c(c1)OCc1cc(F)ccc1-2)NC(=O)[C@@H]1CNCCCO1` (stereo partly drawn) [Compound 11, (2S)—N-(1-Cyano-2-(8-fluoro-6H-benzo[c]chromen-3-yl)ethyl)-1,4-oxazepane-2-carboxamide formate], the half-inhibitory concentration (IC50) is 74 nM. Regarding `N#CC(Cc1ccc2c(c1)COc1cc(F)ccc1-2)NC(=O)[C@@H]1CNCCCO1` (stereo partly drawn) [Compound 15, (2S)—N-(1-Cyano-2-(3-fluoro-6H-benzo[c]chromen-8-yl)ethyl)-1,4-oxazepane-2-carboxamide], the concentration for half-maximal inhibition (IC50) was determined as 304 nM. Turning to `CC1(C)Oc2cc(C[C@@H](C#N)NC(=O)[C@@H]3CNCCCO3)c(F)cc2-c2ccc(C#N)cc21` [Compound 27, (S)—N—((S)-1-Cyano-2-(8-cyano-2-fluoro-6,6-dimethyl-6H-benzo[c]chromen-3-yl)ethyl)-1,4-oxazepane-2-carboxamide], the IC50 was found to be 23 nM.

Take `N#Cc1cnc2c(c1)COc1cc(CC(C#N)NC(=O)[C@@H]3CNCCCO3)c(F)cc1-2` (stereo partly drawn) [Compound 33, (2S)—N-(1-Cyano-2-(3-cyano-9-fluoro-5H-chromeno[4,3-b]pyridin-8-yl)ethyl)-1,4-oxazepane-2-carboxamide]: the concentration for half-maximal inhibition (IC50) stood at 85 nM. As for `N#CC(Cc1ccc2c(c1)OCc1ccc(C3CCNC3)cc1-2)NC(=O)C1(N)CCOCC1` (stereo not shown) [Compound 34, 4-Amino-N-(1-cyano-2-(9-(pyrrolidin-3-yl)-6H-benzo[c]chromen-3-yl)ethyl)tetrahydro-2H-pyran-4-carboxamide], the IC50 was 6.2 nM. Still for that read-out and setting: for `N#C[C@H](Cc1cc2c(cc1F)-c1cc(C3COC3)c(F)cc1CO2)NC(=O)[C@@H]1CNCCCO1` [Compound 38A, (S)—N—((S)-1-Cyano-2-(2,8-difluoro-9-(oxetan-3-yl)-6H-benzo[c]chromen-3-yl)ethyl)-1,4-oxazepane-2-carboxamide] the value was 1.3 nM; for `N#C[C@@H](Cc1cc2c(cc1F)-c1cc(C3COC3)c(F)cc1CO2)NC(=O)[C@@H]1CNCCCO1` [Compound 38B, (S)—N—((R)-1-Cyano-2-(2,8-difluoro-9-(oxetan-3-yl)-6H-benzo[c]chromen-3-yl)ethyl)-1,4-oxazepane-2-carboxamide], 76 nM; for `N#CC(Cc1ccc2c(c1)CCOc1cc(F)ccc1-2)NC(=O)C1(N)CCOCC1` (stereo not shown) [Compound 39, 4-Amino-N-(1-cyano-2-(3-fluoro-6,7-dihydrodibenzo[b,d]oxepin-9-yl)ethyl)tetrahydro-2H-pyran-4-carboxamide], 46 nM.

In the case of `N#C[C@H](Cc1ccc2c(c1)oc1cc(F)ccc12)NC(=O)C1(N)CCOCC1` [Compound 42, (S)-4-Amino-N-(1-cyano-2-(7-fluorodibenzo[b,d]furan-3-yl)ethyl)tetrahydro-2H-pyran-4-carboxamide], the 50% inhibitory concentration (IC50) was found to be 5.7 nM.

In the case of `N#C[C@H](Cc1ccc2c(c1)OCCN(c1ccc(F)cc1)C2=O)NC(=O)C1(N)CCOCC1` [Compound 44, (S)-4-Amino-N-(1-cyano-2-(4-(4-fluorophenyl)-5-oxo-2,3,4,5-tetrahydrobenzo[f][1,4]oxazepin-8-yl)ethyl)tetrahydro-2H-pyran-4-carboxamide], the IC50 stood at 39 nM. Consider `N#Cc1ccc(N2Cc3cc(C[C@@H](C#N)NC(=O)C4(N)CCOCC4)ccc3C2=O)cc1` [Compound 45, (S)-4-Amino-N-(1-cyano-2-(2-(4-cyanophenyl)-1-oxoisoindolin-5-yl)ethyl)tetrahydro-2H-pyran-4-carboxamide], for which the concentration for half-maximal inhibition (IC50) is 72 nM. Same read-out and setting: for `N#Cc1ccc(C(=O)N2Cc3ccc(C[C@@H](C#N)NC(=O)C4(N)CCOCC4)cc3C2)cc1` [Compound 46, (S)-4-Amino-N-(1-cyano-2-(2-(4-cyanobenzoyl)isoindolin-5-yl)ethyl)tetrahydro-2H-pyran-4-carboxamide] the value was 54 nM; for `N#Cc1cccc(N2Cc3cc(C[C@@H](C#N)NC(=O)C4(N)CCOCC4)ccc3C2=O)c1` [Compound 47, (S)-4-Amino-N-(1-cyano-2-(2-(3-cyanophenyl)-1-oxoisoindolin-5-yl)ethyl)tetrahydro-2H-pyran-4-carboxamide formate], 29 nM. With `Cn1c(=O)oc2ccc(N3Cc4cc(C[C@@H](C#N)NC(=O)C5(N)CCOCC5)ccc4C3=O)cc21` [Compound 48, (S)-4-Amino-N-(1-cyano-2-(2-(3-methyl-2-oxo-2,3-dihydrobenzo[d]oxazol-5-yl)-1-oxoisoindolin-5-yl)ethyl)tetrahydro-2H-pyran-4-carboxamide], the IC50 was determined as 29 nM.

As for `N#C[C@H](Cc1ccc2c(c1)CCN(c1ccccc1)C2=O)NC(=O)C1(N)CCOCC1` [Compound 49, (S)-4-Amino-N-(1-cyano-2-(1-oxo-2-phenyl-1,2,3,4-tetrahydroisoquinolin-6-yl)ethyl)tetrahydro-2H-pyran-4-carboxamide], the IC50 was determined as 57 nM. The same measure, in the same setting: for `N#C[C@H](Cc1ccc2c(c1)C(=O)N(c1ccccc1)C2)NC(=O)C1(N)CCOCC1` [Compound 50, (S)-4-Amino-N-(1-cyano-2-(3-oxo-2-phenylisoindolin-5-yl)ethyl)tetrahydro-2H-pyran-4-carboxamide] the value was 19 nM; for `CN1CCc2cc(C[C@@H](C#N)NC(=O)C3(N)CCOCC3)ccc2C1` [Compound 51, (S)-4-Amino-N-(1-cyano-2-(2-methyl-1,2,3,4-tetrahydroisoquinolin-6-yl)ethyl)tetrahydro-2H-pyran-4-carboxamide], 39 nM. `N#C[C@H](Cc1ccc2c(c1)COCC2)NC(=O)C1(N)CCOCC1` [Compound 52, (S)-4-Amino-N-(1-cyano-2-(isochroman-7-yl)ethyl)tetrahydro-2H-pyran-4-carboxamide trifluoroacetate]: the half-maximal inhibitory concentration (IC50) amounted to 138 nM. As to `N#C[C@H](Cc1ccc2c(c1)OCCN(c1ccc(F)cc1)C2)NC(=O)C1(N)CCOCC1` [Compound 53, (S)-4-Amino-N-(1-cyano-2-(4-(4-fluorophenyl)-2,3,4,5-tetrahydrobenzo[f][1,4]oxazepin-8-yl)ethyl)tetrahydro-2H-pyran-4-carboxamide], the IC50 was 196 nM. Same read-out and setting: as for `N#C[C@H](Cc1ccc2c(c1)CN(c1ccc(F)cc1)C2)NC(=O)C1(N)CCOCC1` [Compound 54, (S)-4-Amino-N-(1-cyano-2-(2-(4-fluorophenyl)isoindolin-5-yl)ethyl)tetrahydro-2H-pyran-4-carboxamide], the figure is 28 nM. The same measure, in the same setting: as for `N#C[C@H](Cc1ccc2c(c1)CN(C(=O)c1ccc(F)cc1)C2)NC(=O)C1(N)CCOCC1` [Compound 55, (S)-4-Amino-N-(1-cyano-2-(2-(4-fluorobenzoyl)isoindolin-5-yl)ethyl)tetrahydro-2H-pyran-4-carboxamide], the figure is 174 nM.

The record behind these values is US20240083888A1, “SMALL MOLECULE INHIBITOR FOR CATHEPSIN C AND MEDICINAL USE THEREOF” (REISTONE BIOPHARMA COMPANY LIMITED, priority 2020, published 2024).
